Our source for the IC50 values is patent publication US10039753B2, “Imidazo[4,5-c]quinoline and imidazo[4,5-c][1,5]naphthyridine derivatives as LRRK2 inhibitors” (Pfizer Inc., priority 2015, dated 2018).

One test has as its target mutant G2019S LRRK2 (Homo sapiens, UniProt Q5S007, G2019S). As to the kind of experiment: LRRK2 Assay, Format 1 (Lantha Screen), G2019S mutant.
For test [1], the target named is T1, GST-tagged truncated LRRK2 (Homo sapiens, UniProt Q5S007).
T1 construct: GST-tagged truncated LRRK2 from Invitrogen (Cat # PV4874); GST; purchased Invitrogen PV4874
Put plainly: LRRK2 Assay, Format 1 (Lantha Screen), WT. Format: biochemical. The method, then:
LRRK2 kinase activity was measured using Lantha Screen technology from Invitrogen. GST-tagged truncated LRRK2 from Invitrogen (Cat # PV4874) was incubated with a fluorescein-labeled peptide substrate based upon ezrin/radixin/moesin (ERM), also known as LRRKtide (Invitrogen cat # PR8976A), in the presence of a dose response of compound. Upon completion, the assay was stopped and detected with a terbium labeled anti-phospho-ERM antibody (Invitrogen, cat # PR8975A). […] Aliquots (3.5 μL) of the 100% DMSO dose response were mixed with 46.5 μL water then 1 μL of this mixture was added to the 3 μL substrate mix in the 384-well plate. The kinase reaction was started with 3 μL of a working solution of LRRK2 enzyme at a concentration of 4 μg/mL. […] The reaction was allowed to progress at room temperature for two hours and then stopped with the addition of 7 μL of detection buffer (20 mM Tris pH 7.6, 0.01% NP-40, 0.02% NaN3, 6 mM EDTA with 2 nM terbium labeled anti-phospho-ERM).

[2] abbreviates: Format 1, wild-type LRRK2, geometric mean of 2-4 determinations unless footnoted (a: ≥5 determinations; b: single determination; c: determined on trifluoroacetate salt).
Where [3] appears, read: 100 nM LRRKtide, 50 μM ATP, 1.7 μg/mL LRRK2 enzyme, two hours at room temperature.

Structures can show the parent of a compound that is named as a salt.

Usually IC50 stands for the concentration at which inhibition is half-maximal.

T1 sequence (Q5S007 970-2527 limits assumed): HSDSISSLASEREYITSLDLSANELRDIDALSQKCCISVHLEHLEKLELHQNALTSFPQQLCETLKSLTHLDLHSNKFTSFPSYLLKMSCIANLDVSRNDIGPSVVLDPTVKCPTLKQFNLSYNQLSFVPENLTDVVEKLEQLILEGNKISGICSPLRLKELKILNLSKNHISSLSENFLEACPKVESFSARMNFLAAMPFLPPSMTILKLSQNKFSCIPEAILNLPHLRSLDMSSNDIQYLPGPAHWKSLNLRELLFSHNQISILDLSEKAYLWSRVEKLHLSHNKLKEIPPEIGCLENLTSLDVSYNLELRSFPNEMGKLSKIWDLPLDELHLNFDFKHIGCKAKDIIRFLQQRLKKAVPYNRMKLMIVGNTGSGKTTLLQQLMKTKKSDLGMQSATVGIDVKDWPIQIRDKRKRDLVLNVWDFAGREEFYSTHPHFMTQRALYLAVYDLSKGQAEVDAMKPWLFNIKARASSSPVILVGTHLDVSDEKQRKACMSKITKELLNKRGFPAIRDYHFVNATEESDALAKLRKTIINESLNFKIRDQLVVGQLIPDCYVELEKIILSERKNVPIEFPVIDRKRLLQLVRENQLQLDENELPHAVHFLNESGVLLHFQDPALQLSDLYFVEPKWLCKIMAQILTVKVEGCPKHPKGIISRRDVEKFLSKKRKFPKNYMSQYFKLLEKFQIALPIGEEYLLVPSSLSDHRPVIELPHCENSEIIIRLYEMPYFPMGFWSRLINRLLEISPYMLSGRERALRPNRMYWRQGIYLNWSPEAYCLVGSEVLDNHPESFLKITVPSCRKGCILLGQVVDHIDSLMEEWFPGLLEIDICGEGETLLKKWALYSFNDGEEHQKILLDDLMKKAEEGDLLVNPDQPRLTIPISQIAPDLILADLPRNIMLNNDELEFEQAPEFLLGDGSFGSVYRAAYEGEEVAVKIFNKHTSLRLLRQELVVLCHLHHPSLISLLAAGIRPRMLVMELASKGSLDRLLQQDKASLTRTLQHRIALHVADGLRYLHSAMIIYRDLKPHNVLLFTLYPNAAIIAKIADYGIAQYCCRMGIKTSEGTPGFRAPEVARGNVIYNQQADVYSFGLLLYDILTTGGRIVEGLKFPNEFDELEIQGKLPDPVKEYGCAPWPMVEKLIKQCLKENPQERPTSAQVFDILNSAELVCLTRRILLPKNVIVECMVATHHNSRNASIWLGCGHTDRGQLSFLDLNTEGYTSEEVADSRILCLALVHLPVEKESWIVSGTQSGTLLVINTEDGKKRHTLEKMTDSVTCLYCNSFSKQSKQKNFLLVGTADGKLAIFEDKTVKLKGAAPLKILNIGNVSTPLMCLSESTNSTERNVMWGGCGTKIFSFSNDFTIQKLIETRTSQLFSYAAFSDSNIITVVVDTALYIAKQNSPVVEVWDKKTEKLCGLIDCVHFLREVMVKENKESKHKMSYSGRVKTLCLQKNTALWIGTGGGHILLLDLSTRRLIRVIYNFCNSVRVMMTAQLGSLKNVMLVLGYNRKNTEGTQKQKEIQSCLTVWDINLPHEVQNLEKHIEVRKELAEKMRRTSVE
Sequence of mutant G2019S LRRK2 (Q5S007 970-2527 G2019S limits assumed): as the sequence (Q5S007 970-2527 limits assumed) above, with G1050S counted along it

In the case of `C[C@@H]1C[C@H](n2c(Cc3ncon3)nc3cnc4ccc(Cl)cc4c32)CCO1` [Example 13, 8-chloro-1-[(2R,4R)-2-methyltetrahydro-2H-pyran-4-yl]-2-(1,2,4-oxadiazol-3-ylmethyl)-1H-imidazo[4,5-c]quinoline], the IC50 at mutant G2019S LRRK2 came out at 6.4 nM; in test [1] (setting [2]) it was 10.3 nM.

For `Cc1nc2cnc3ccc(Br)cc3c2n1[C@H]1CC[C@@H](F)C1` [Example 6, 8-Bromo-1-[(1S,3R)-3-fluorocyclopentyl]-2-methyl-1H-imidazo[4,5-c]quinoline], the IC50 was found to be 168 nM on mutant G2019S LRRK2 and 172 nM in test [1] (setting [2]).

In the case of `COc1ccc2ncc3nc(Cc4ccon4)n([C@@H]4CCO[C@H](C)C4)c3c2c1` [Example 62, 8-methoxy-1-[(2R,4R)-2-methyltetrahydro-2H-pyran-4-yl]-2-(1,2-oxazol-3-ylmethyl)-1H-imidazo[4,5-c]quinoline], the half-inhibitory concentration (IC50) came out at 12.8 nM against mutant G2019S LRRK2 and 41.9 nM in test [1] (setting [2]).

Consider `CC1(C)CC(n2c(Cc3ccon3)nc3cnc4ccc(F)cc4c32)CCO1` (centres unmarked) [Example 84, 1-(2,2-dimethyltetrahydro-2H-pyran-4-yl)-8-fluoro-2-(1,2-oxazol-3-ylmethyl)-1H-imidazo[4,5-c]quinoline, trifluoroacetate salt], for which the 50% inhibitory concentration (IC50) was 24.9 nM on mutant G2019S LRRK2 and 31.4 nM in test [1] (setting [2]).

For the compound `Clc1ccc2ncc3nc(Cc4ccon4)n(C4CCOCC4)c3c2c1` [Example 63, 8-chloro-2-(1,2-oxazol-3-ylmethyl)-1-(tetrahydro-2H-pyran-4-yl)-1H-imidazo[4,5-c]quinoline, formate salt], the IC50 against mutant G2019S LRRK2 was determined as 12.1 nM; in test [1] (setting [2]), 16.1 nM.

`Cc1nc2cnc3ccccc3c2n1[C@H]1CCO[C@@H](CC#N)C1` (racemic) [Example 91, [cis-4-(2-methyl-1H-imidazo[4,5-c]quinolin-1-yl)tetrahydro-2H-pyran-2-yl]acetonitrile]: the IC50 on mutant G2019S LRRK2 turned out to be 12.2 nM; in test [1] (setting [2]), 18.7 nM.

As for `C[C@@H]1C[C@H](n2c(Cc3ccon3)nc3cnc4cccnc4c32)CCO1` [Example 68, 1-[(2R,4R)-2-methyltetrahydro-2H-pyran-4-yl]-2-(1,2-oxazol-3-ylmethyl)-1H-imidazo[4,5-c][1,5]naphthyridine], the 50% inhibitory concentration (IC50) against mutant G2019S LRRK2 is 19.2 nM; in test [1] (setting [2]), 23.6 nM.

For `Cc1nc2cnc3ccc(C#N)cc3c2n1[C@H]1CC[C@@H](F)C1` [Example 20, 1-[(1S,3R)-3-fluorocyclopentyl]-2-methyl-1H-imidazo[4,5-c]quinoline-8-carbonitrile], the 50% inhibitory concentration (IC50) against mutant G2019S LRRK2 was found to be 174 nM; in test [1] (setting [2]), 195 nM.

As to `COc1ccc2ncc3nc(Cc4cc(C)on4)n([C@@H]4CCO[C@H](C)C4)c3c2c1` (single isomer, unassigned) [Example 1], the IC50 at mutant G2019S LRRK2 stood at 14.4 nM; in test [1] (setting [2]) it was 39.3 nM.

Turning to `CC1(C)CC(n2c(Cc3cn4ncsc4n3)nc3cnc4ccccc4c32)CCO1` (centres unmarked) [Example 73, 1-(2,2-dimethyltetrahydro-2H-pyran-4-yl)-2-(imidazo[2,1-b][1,3,4]thiadiazol-6-ylmethyl)-1H-imidazo[4,5-c]quinoline, trifluoroacetate salt], the half-inhibitory concentration (IC50) was determined as 98.4 nM at mutant G2019S LRRK2 and 76.3 nM in test [1] (setting [2]).

In the case of `C[C@H]1C[C@@H](n2c(Cc3ccon3)nc3cnc4ccc(C#N)cc4c32)CCO1` [enantiomer of Example 22, 1-[(2 S,4S)-2-methyltetrahydro-2H-pyran-4-yl]-2-(1,2-oxazol-3-ylmethyl)-1H-imidazo[4,5-c]quinoline-8-carbonitrile], the concentration for half-maximal inhibition (IC50) turned out to be 258 nM at mutant G2019S LRRK2 and 534 nM in test [1] (setting [3]).

Regarding `Cc1cc(Cc2nc3cnc4ccc(Br)cc4c3n2[C@H]2CCO[C@@H](C)C2)no1` (racemic) [Example 58, 8-bromo-2-[(5-methyl-1,2-oxazol-3-yl)methyl]-1-(cis-2-methyltetrahydro-2H-pyran-4-yl)-1H-imidazo[4,5-c]quinoline], the half-inhibitory concentration (IC50) against mutant G2019S LRRK2 turned out to be 8.2 nM; in test [1] (setting [2]), 16.8 nM.

For the compound `Cc1nc2cnc3ccc(C#N)cc3c2n1[C@H]1CCO[C@@H](C)C1` (racemic) [Example 19, 2-methyl-1-(cis-2-methyltetrahydro-2H-pyran-4-yl)-1H-imidazo[4,5-c]quinoline-8-carbonitrile], the IC50 at mutant G2019S LRRK2 turned out to be 55.5 nM; in test [1] (setting [2]), 81 nM.

As for `Cc1nc2cnc3ccc(Cl)cc3c2n1C1CCOCC1` [Example 17, 8-chloro-2-methyl-1-(tetrahydro-2H-pyran-4-yl)-1H-imidazo[4,5-c]quinoline], the figures for the half-maximal inhibitory concentration (IC50) (at mutant G2019S LRRK2; in test [1] (setting [2])) were 132 nM and 125 nM, respectively.

In the case of `Cc1nc2cnc3ccc(C#N)cc3c2n1C1CCOCC1` [Example 14, 2-methyl-1-(tetrahydro-2H-pyran-4-yl)-1H-imidazo[4,5-c]quinoline-8-carbonitrile], the figures for the IC50 (at mutant G2019S LRRK2; in test [1] (setting [2])) were 191 nM and 160 nM, respectively.

For the compound `c1ccc2c(c1)ncc1nc(Cc3cscn3)n(C3CCOCC3)c12` [Example 36, 1-(tetrahydro-2H-pyran-4-yl)-2-(1,3-thiazol-4-ylmethyl)-1H-imidazo[4,5-c]quinoline, formate salt], the IC50 against mutant G2019S LRRK2 came to 90.5 nM; in test [1] (setting [2]), 85.5 nM.

Turning to `c1ccc2c(c1)ncc1nc(Cc3ccon3)n(C3CCOCC3)c12` [Example 18, 2-(1,2-oxazol-3-ylmethyl)-1-(tetrahydro-2H-pyran-4-yl)-1H-imidazo[4,5-c]quinoline], the IC50 came out at 250 nM against mutant G2019S LRRK2 and 153 nM in test [1] (setting [2]).

`c1ccc2c(c1)ncc1nc(Cc3noc4ccccc34)n(C3CCOCC3)c12` [Example 29, 2-(1,2-benzoxazol-3-ylmethyl)-1-(tetrahydro-2H-pyran-4-yl)-1H-imidazo[4,5-c]quinoline]: the IC50 against mutant G2019S LRRK2 was determined as 226 nM; in test [1] (setting [2]) it was 164 nM.

As for `Fc1ccc2ncc3nc(Cn4cc(C(F)(F)F)cn4)n(C4CCOCC4)c3c2c1` [Example 78, 8-fluoro-1-(tetrahydro-2H-pyran-4-yl)-2-{[4-(trifluoromethyl)-1H-pyrazol-1-yl]methyl}-1H-imidazo[4,5-c]quinoline, trifluoroacetate salt], the figures for the half-maximal inhibitory concentration (IC50) (against mutant G2019S LRRK2; in test [1] (setting [2])) were 115 nM and 145 nM, respectively.

Turning to `COc1ccc2ncc3nc(Cn4cc(C)nn4)n([C@@H]4CCO[C@H](C)C4)c3c2c1` [Example 88, 8-methoxy-1-[(2R,4R)-2-methyltetrahydro-2H-pyran-4-yl]-2-[(4-methyl-1H-1,2,3-triazol-1-yl)methyl]-1H-imidazo[4,5-c]quinoline], the IC50 on mutant G2019S LRRK2 worked out at 7.5 nM; in test [1] (setting [2]) it was 18 nM.

As to `COc1ccc2ncc3nc(Cc4cc(C)on4)n([C@H]4CCO[C@@H](C)C4)c3c2c1` (single isomer, unassigned) [Example C12], the values for the IC50 (on mutant G2019S LRRK2; in test [1] (setting [2])) were 478 nM and 1260 nM, respectively.

With `C[C@@H]1C[C@@H](n2c(Cc3ccon3)nc3cnc4ccc(C#N)cc4c32)CCO1` (racemic) [Example 23, 1-(trans-2-methyltetrahydro-2H-pyran-4-yl)-2-(1,2-oxazol-3-ylmethyl)-1H-imidazo[4,5-c]quinoline-8-carbonitrile], the 50% inhibitory concentration (IC50) was 153 nM against mutant G2019S LRRK2 and 199 nM in test [1] (setting [2]).

Take `COc1ccc2ncc3nc(Cn4cc(C)nn4)n([C@H]4CCO[C@@H](C)C4)c3c2c1` [enantiomer of Example 88, 8-methoxy-1-[(2S,4S)-2-methyltetrahydro-2H-pyran-4-yl]-2-[(4-methyl-1H-1,2,3-triazol-1-yl)methyl]-1H-imidazo[4,5-c]quinoline]: the IC50 against mutant G2019S LRRK2 was determined as 372 nM; in test [1] (setting [3]), 1050 nM.

For the compound `C[C@H]1C[C@@H](n2c(Cc3ccon3)nc3cnc4ccc(Br)cc4c32)CCO1` (single isomer, unassigned) [enantiomer of Example 12], the values for the IC50 (on mutant G2019S LRRK2; in test [1] (setting [3])) were 226 nM and 510 nM, respectively.

Turning to `C[C@@H]1C[C@H](n2c(Cc3ccon3)nc3cnc4ccc(Br)cc4c32)C[C@H](C)O1` [Example 59, 8-bromo-1-[(2R,4r,6S)-2,6-dimethyltetrahydro-2H-pyran-4-yl]-2-(1,2-oxazol-3-ylmethyl)-1H-imidazo[4,5-c]quinoline], the IC50 amounted to 52 nM against mutant G2019S LRRK2 and 176 nM in test [1] (setting [2]).

As to `CC[C@H]1C[C@@H](n2c(Cc3ccon3)nc3cnc4ccc(C#N)cc4c32)CCO1` [enantiomer of Example 67, 1-[(2S,4S)-2-ethyltetrahydro-2H-pyran-4-yl]-2-(1,2-oxazol-3-ylmethyl)-1H-imidazo[4,5-c]quinoline-8-carbonitrile], the IC50 is 403 nM at mutant G2019S LRRK2 and 699 nM in test [1] (setting [3]).

On to `Cc1nn2cc(Cc3nc4cnc5ccc(F)cc5c4n3C3CCOC(C)(C)C3)nc2s1` (centres unmarked) [Example 83, 1-(2,2-dimethyltetrahydro-2H-pyran-4-yl)-8-fluoro-2-[(2-methylimidazo[2,1-b][1,3,4]thiadiazol-6-yl)methyl]-1H-imidazo[4,5-c]quinoline, trifluoroacetate salt], for which the IC50 against mutant G2019S LRRK2 was 21.2 nM; in test [1] (setting [2]), 25.4 nM.

Turning to `COc1ccc2ncc3nc(Cc4ccon4)n([C@H]4CCO[C@@H](C)C4)c3c2c1` [enantiomer of Example 62, 8-methoxy-1-[(2S,4S)-2-methyltetrahydro-2H-pyran-4-yl]-2-(1,2-oxazol-3-ylmethyl)-1H-imidazo[4,5-c]quinoline], the 50% inhibitory concentration (IC50) against mutant G2019S LRRK2 stood at 508 nM; in test [1] (setting [3]) it was 1710 nM.
